{
  "source": "patent US12209142B2",
  "about": "“SARS-CoV-2 epitope-targeted peptide immunostimulants” (Institute for Systems Biology, priority 2020, dated 2025)",
  "key": {"[1]": {"test_system": "K. pneumoniae cells, BAA 1705 and BAA 2146", "experiment": "Whole-cell ELISA of anti-DNP recruitment to bacterial cell surfaces", "assay_type": "cell-based, Klebsiella pneumoniae", "conditions": "AR-PCC plus anti-DNP; cy(LLFFF)-DNP 5 or 10 μM, cy(HNGPT)-DNP 50 and 100 μM", "excerpt": "FIG. 12 is a plot of 450 nm absorbances obtained from a cell-based ELISA assay conducted on two strains of K. pneumoniae cells, BAA 1705 (black) and BAA 2146 (grey), that were either untreated or opsonized by EPIs (AR-PCCs) and/or antibodies. […] This establishes EPI-driven opsonization by cy(LLFFF)-DNP (SEQ ID NO:5). […] This indicates opsonization by cy(LLFFF)-DNP (SEQ ID NO:5) is specific and is driven by the ligand cy(LLFFF) (SEQ ID NO:5), rather than the Lys(DNP) moiety.\nThe protocol for detecting anti-DNP recruitment to bacterial cell surfaces is as follows. […] After washing, bacteria were incubated with HRP conjugated secondary antibody (Bio-Rad) at a dilution of 1:10,000 for 1 h at 37° C. Unbound antibody was washed off by using PBS-BSA and the cells were then developed by using TMB reagent. […] Anti-MrkA antibody was procured from Biorbyt (orb51318) and used at a concentration of 5 μg/mL, and K. pneumoniae antiserum was obtained from abcam (ab20947) and used at a concentration of 5 μg/mL."}, "[2]": {"test_system": "K. pneumoniae cells (strain BAA 2146)", "experiment": "Flow cytometry of AR-PCC-driven opsonization by anti-DNP antibodies", "assay_type": "cell-based, Klebsiella pneumoniae"}, "[3]": {"test_system": "live or heat-killed MRSA cells", "experiment": "ELISA of PCC-driven SAv-HRP recruitment to MRSA cells", "assay_type": "cell-based, Staphylococcus aureus", "conditions": "without or with 0.4 micrograms/mL tunicamycin", "experimental": "FIG. 16A-16B are graphs showing PCC-driven recruitment of streptavidin-horseradish peroxidase (SAv-HRP) conjugate to live MRSA cells (FIG. 16A) or heat-killed MRSA cells (FIG. 16B) cultured under different antibiotic conditions via enzyme-linked Immunosorbent Assays (ELISAs). All tests were conducted by coating the antigen (MRSA cells) onto the wells of 96-well plates and then exposing the wells solutions containing biotinylated PCCs, then SAv-HRP, then HRP substrate followed by detection via absorbance at 450 nm. Absorbance values greater than the “no PCC” background indicate that several PCCs recruit SAv-HRP to either live cells (FIG. 16A) or heat-killed cells (FIG. 16B) cultured either without antibiotic (“−tunicamycin”, first three bars in each set) or with 0.4 micrograms/mL of tunicamycin (“+tunicamycin”, last three bars in each set), which reduces the expression of wall teichoic aids by MRSA. All measurements were conducted in triplicate and error bars reflect standard deviations. […]\nThe recruitment ability of selected PCCs was assessed by PCC-driven recruitment of streptavidin-horseradish peroxidase (SAv-HRP) conjugate to live MRSA cells (FIG. 16A) or heat-killed MRSA cells (FIG. 16B) cultured under different antibiotic conditions via enzyme-linked Immunosorbent Assays (ELISAs). […]"}, "[4]": {"test_system": "MrkA-expressing K. pneumoniae cells", "experiment": "Whole-cell ELISA of biotinylated PCC binding", "conditions": "biotinylated PCC at 5 μM"}, "[5]": {"molecular_target": "T1, full-length recombinant MrkA protein (Klebsiella pneumoniae, UniProt P12267)", "T1 construct": "purchased MyBiosource MBS1248970", "T1 sequence (P12267 23-202)": "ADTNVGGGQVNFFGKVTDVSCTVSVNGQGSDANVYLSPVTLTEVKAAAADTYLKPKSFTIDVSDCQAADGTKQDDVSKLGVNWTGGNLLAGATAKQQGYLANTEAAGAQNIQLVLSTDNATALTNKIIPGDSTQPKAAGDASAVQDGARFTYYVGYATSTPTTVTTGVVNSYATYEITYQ", "experiment": "Sandwich ELISA of PCC binding to full-length MrkA", "experimental": "The screen yielded 26 hits (Table 2) that were sequenced, scaled up, and tested for binding to full-length recombinant MrkA in solution by single-point sandwich Enzyme-linked immunoassays (ELISAs) (FIG. 8). HPraGly is present before X1 in each peptide and Az4 follows X5 in each peptide.\nAn alanine scan was performed to establish which residues of cy(LLFFF) (SEQ ID NO:5) contribute most to MrkA binding. In this assay, a sandwich ELISA is used to quantify the affinity of several cy(LLFFF) (SEQ ID NO:5) analogues, in which one residue is substituted with an alanine, towards full-length MrkA protein. The ELISA results in FIG. 4 show lower signal for every alanine-substituted cy(LLFFF) (SEQ ID NO:5) analogue compared to unmodified cy(LLFFF) (SEQ ID NO:5), establishing that the native compound has the highest affinity. […] Thus, these two C-terminal phenylalanine residues (FIG. 3A, arrows in inset) play critical roles in MrkA binding, and are targets for modifications to improve binding. Another important detail of these alanine scan results is a strong dependence of MrkA binding on the residue position, independent of residue type. For example, cy(LLAFF) (SEQ ID NO:9) and cy(LLFFA) (SEQ ID NO:11) have very different binding affinities, despite having the same phenylalanine-to-alanine substitution.\nIn vitro ELISA assays. ELISA assays for MrkA-binding and epitope selectivity were performed on clear NeutrAvidin Coated High Capacity Plates (ThermoFisher, 15507). The buffer used for all washes and to dissolve all compounds was TBST+0.1% BSA (TBS+0.05% Tween 20+0.1% BSA, pH 7.3) and, unless otherwise stated, steps were conducted at room temperature. Each wash involved a brief 20 s agitation, and all conjugation, blocking, and incubation steps were performed with gentle agitation over the entire stated time period. The general procedure for an ELISA assay was: wash 3×200 μL/well, conjugate with 2 μM of biotinylated compound for 2 h at room temperature (100 μL/well), wash 3×200 μL/well, blocked overnight in 5 wt % milk at 4° C., wash […] with wash buffer, incubate with titrated compound (e.g., MrkA or epitope) for 1 h, […], incubate with primary antibody […] for 1 h (100 μL/well), wash 3×200 μL/well, incubate with 1:2,000 anti-rabbit secondary antibody-horseradish peroxidase conjugate (Cell signaling Technologies, 7074S) for 1 h, 3×200 μL/well, develop with the Microwell Peroxidase Substrate System (2-C) (SeraCare, 5120-0047) using 100 μL/well for 1-40 minutes, and quench using 1 M H2SO4 (aq.) at 100 μL/well. For MrkA binding assays, biotinylated PCCs were conjugated to the well surface, recombinant MrkA with an N-terminal 6×His-SUMO-tag (MyBiosource, MBS1248970) was titrated at the desired concentration, and the primary antibody was His-tag antibody, pAb, Rabbit (Genscript, A00174) at a 1:5,000 dilution. For epitope selectivity assays, biotinylated SynEps were conjugated, DNP-conjugated AR-PCCs were titrated at a desired concentration, and the primary antibody was anti-DNP antibody produced in Rabbit (Sigma-Aldrich, D9656) at a 1:8,000 dilution. […] For binding tests in the context of mouse sera, the “titrated compound” described in the steps above was dispersed in a solution containing the desired concentration of mouse serum."}, "[6]": {"experiment": "Isocratic point of PCCs (C18 prep-scale column elution)", "assay_type": "physicochemical", "excerpt": "The efficacy of AR-PCCs in vivo will not only depend on target binding, but also pharmacokinetic (PK) properties, of which clearance pathway is an important parameter. […] Modifications include single- and double-residue substitutions, residue removal, and the addition of non-ionic PEG and charged poly-arginine tags (Ri, where i represents the number of arginine). Results of this optimization are shown in FIG. 4B, which plots IP versus the affinity of the compound to MrkA, relative to cy(LLFFF) (SEQ ID NO:5).\nPCC compounds were purified on a Waters Autopurification system, which isolated compounds based on MS peaks corresponding to protonated [M+1H]^+ and [M+2H]^2+, and/or sodium adducts [M+Na]^+ and [M+2Na]^2+. The isocratic points of PCCs were determined based on the elution of the compound from a C18 prep-scale column. Synthetic epitopes were either purified on the Waters Autopurification System, or by semi-preparative HPLC and then using matrix-assisted laser desorption/ionization mass spectroscopy to identify fractions with the desired m/z ratio. The resulting peptides were lyophilized, the yield determined by mass difference or UV-visible absorbance, and resuspended at a concentration of up to 10 mM peptide in DMSO. Peptides were stored at −80° C. before thawing for each use."}, "[7]": {"test_system": "K. pneumoniae cells (strain BAA 1705)", "experiment": "Gentamicin protection assay: phagocytosis and opsonophagocytic killing (OPK) by macrophages", "assay_type": "cell-based, Klebsiella pneumoniae", "conditions": "macrophages harvested at 6 hrs", "experimental": "FIGS. 7A and 7B show a gentamicin protection assay that evaluates EPI-driven phagocytosis and opsonophagocytic killing (OPK) of K. pneumoniae cells by murine bone-marrow-derived macrophages. FIG. 7A is a flow diagram depicting the assay used to evaluate EPI-driven opsonophagocytic killing (OPK) of K. pneumoniae cells. Briefly, K. pneumoniae cells (strain BAA 1705) opsonized by EPIs (AR-PCCs) and anti-DNP antibodies were incubated with macrophages for 1 or 24 h. Macrophages were lysed, and the lysate was plated to obtain bacterial colonies that were subsequently counted. FIG. 7B is a plot of colony counts for various samples subjected to the OPK assay. […] All EPIs (AR-PCCs) were used at a 5 μM concentration, measurements were conducted in triplicate, and error bars reflect standard deviations. cy(LLFFA) is SEQ ID NO:11.\nIt also tested whether DNP-conjugated EPIs could promote the opsonophagocytic killing (OPK) of K. pneumoniae by macrophages. This was tested by using an OPK assay. Briefly, K. pneumoniae cells were treated with EPI and then anti-DNP antibody before being exposed to macrophages for either 6 or 24 hours. During this incubation period, macrophages that recognize K. pneumoniae cells will phagocytose them, and phagocytosed bacteria will remain viable for up to 6 hours, but within 24 hours are rendered inviable by OPK. Thus, macrophages were isolated after 6 and 24 hours of incubation with K. pneumoniae, lysed them, and plated and grew the lysate, which yielded bacterial colonies that reflect the phagocytosis (at 6 hrs) or OPK (at 24 hrs) of bacteria.\nGiven that cy(LLFFF)-DNP (SEQ ID NO:5) recruits antibodies to K. pneumoniae surfaces, it was expected that K. pneumoniae opsonized in this manner would be more susceptible to phagocytosis by macrophages. AR-PCC-driven phagocytosis and OPK were quantified by a gentamicin protection assay, as depicted in FIG. 7A. For this assay, K. pneumoniae cells (strain BAA 1705) were treated with cy(LLFFF)-DNP (SEQ ID NO:5), opsonized by anti-DNP antibodies, and then incubated with murine bone-marrow-derived macrophages (BMDMs). BMDMs were subsequently exposed to a solution containing gentamicin, to which K. pneumoniae strain BAA 1705 is susceptible, to kill any extracellular bacteria. Phagocytosed bacteria remain viable inside BMDMs for at least 1 h, yet are rendered inviable after 24 h by OPK (FIG. 13). Macrophages harvested at 1 h and 24 h were lysed and plated to generate bacterial colonies, which were enumerated to quantify phagocytosis and OPK.\nOpsonophagocytic killing (OPK) assays. Klebsiella pneumoniae BAA1705 was treated with DNP-PCCs followed by incubation with anti-DNP antibody, as described above in the “Cell-Based ELISAs” section. These opsonized bacteria were then used to infect BMDMs at a multiplicity of infection of 50 for 0.5 h at 37° C. Bacteria were then washed by using RPMI 1640 Media and BMDMs were left in cell culture medium containing gentamicin (100 μg/ml). After 1 h and 24 h BMDMs were washed to remove gentamicin and intracellular bacteria were harvested by lysing BMDMs in RPMI media containing 0.2% Triton X 100. Bacterial CFUs were enumerated by plating onto LB agar. Bacterial counts at 1 h indicated the degree of opsonization while those at 24 h served as a measure of microbicidal activity of macrophages. For these measurements, anti-MrkA antibody and K. pneumoniae antiserum were used at dilutions of 5 μg/mL each."}},
  "note": "“Also recorded” adds a separate entry of the source. Bridges are numbered along the chain shown (N, C = ends). Where no end group is shown, it is not given here. [ ]: non-standard residue; d: D form. Lys(N3) = [N-]=[N+]=NCCCC[C@H](N)C(=O)O; Pra = C#CC[C@H](N)C(=O)O",
  "data": [
    {"substance": "cy(HNGPT)-DNP: control AR-PCC, DNP-conjugated dummy ligand ([Lys(N3)]HNGPT[Pra]; triazole 1-7; also: DNP-conjugated) [reference compound]", "values": [
      {"measurement": "450 nm absorbance, anti-DNP recruitment to cells", "setting": "[1]", "result": "Much smaller signals"},
      {"measurement": "fluorescence intensity of cells (predominantly)", "setting": "[2]; AR-PCC at 50 μM plus Alexafluor 488 anti-DNP, strain BAA 2146", "result": "< 1.0×10^1"}
    ]},
    {"substance": "cy(kpdew): PCC to MRSA peptidoglycan, D-amino acids ([Lys(N3)][dK][dP][dD][dE][dW]X; bridge 1-7; not fully specified (residue 7, bridges); printed as cy(kpdew))", "values": [
      {"measurement": "SAv-HRP recruitment to MRSA cells", "setting": "[3]", "result": "Standout recruiting peptides"}
    ]},
    {"substance": "cy(akkrp) ([Lys(N3)][dA][dK][dK][dR][dP]X; bridge 1-7; not fully specified (residue 7, bridges); printed as cy(akkrp))", "values": [
      {"measurement": "SAv-HRP recruitment to MRSA cells", "setting": "[3]", "result": "Standout recruiting peptides"}
    ]},
    {"substance": "cy(LLFFF)+R6", "values": [
      {"measurement": "whole-cell ELISA signal, K. pneumoniae BAA 1705 and BAA 2146", "setting": "[4]", "result": "similarly high selectivity towards MrkA-expressing cells"},
      {"measurement": "binding of MrkA protein in mouse sera", "setting": "[5]; MrkA protein at 250 nM in 10 and 100% mouse sera", "result": "binds MrkA protein in the context of sera; also recorded: bound MrkA protein in solutions of 10 and 100% mouse sera, albeit at lower levels versus 0% serum"},
      {"measurement": "stronger affinity to MrkA over cy(LLFFF)", "setting": "[5]; ratio of ELISA signals to cy(LLFFF) reference on same plate", "result": 22, "unit": "%"},
      {"measurement": "reduction / improvement in IP versus cy(LLFFF)", "setting": "[6]", "result": "~35", "unit": "%"},
      {"measurement": "isocratic point (IP)", "setting": "[6]; elution from C18 prep-scale column", "result": "~40", "unit": "%"}
    ]},
    {"substance": "cy(HNGPT): non-MrkA-binding dummy ligand ([Lys(N3)]HNGPT[Pra]; triazole 1-7) [reference compound]", "values": [
      {"measurement": "whole-cell ELISA signal, K. pneumoniae BAA 1705 and BAA 2146", "setting": "[4]", "result": "comparably lower signal; also recorded: no or minimal binding above baseline"},
      {"measurement": "CFU at 6 hrs, DNP-conjugated EPI and anti-DNP antibody", "setting": "[7]", "result": "did not promote any phagocytosis"},
      {"measurement": "cell counts at 6 hrs, DNP-conjugated EPI without antibody", "setting": "[7]", "result": "~35,000"},
      {"measurement": "fluorescence of cells (opsonization by anti-DNP)", "setting": "[2]; cy(LLFFF)-DNP 1 or 5 μM, cy(HNGPT) control 50 μM, plus fluorescent anti-DNP", "result": "Slightly greater fluorescence"}
    ]}
  ]
}
